Holding throughout (conditions): incubation time: 72 h
The subject of assay [1] is MCF-10A. The experiment in a line: normalised response (% of control), CellTiter-Glo; higher = more viable cells (100 = DMSO, 0 = benzethonium chloride kill control). In a few lines:
(§1)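 Breast cancer cell lines were exposed for 72 h in 384-well plates to compound at 5 concentrations, 10-fold apart, covering a 10,000-fold range fixed for each compound. Plates were read for CellTox Green fluorescence and CellTiter-Glo luminescence and normalised to 0.1 % DMSO (100) and a positive kill control (0). Each value is the normalised signal at one concentration of the series.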

The test system of assay [2] is MDA-MB-468. Described as above. A digest of the protocol:
as §1

The subject of assay [3] is CAL-85-1. The description is as above. A digest of the protocol: as §1
Assay [4] has as its system HCC1143. The assay is described as above. A digest of the protocol: as §1
The test system of assay [5] is BT-549. The description is as above. In a few lines: as §1
For assay [6], the system named is CAL-51. The assay is described as above. In a few lines: as §1
Assay [7] concerns BT-474. The description is as above. In a few lines: as §1
Assay [8] relates to MFM-223. The assay is described as above. In a few lines: as §1
The test system of the next assay is SK-BR-3. The assay is described as above. In a few lines: as §1
The subject of assay [9] is HCC1937. Described as above. A digest of the protocol: as §1
The subject of assay [10] is MDA-MB-453. The assay is described as above. A digest of the protocol:
as §1

The subject of assay [11] is MDA-MB-436. The description is as above. In a few lines:
as §1

Assay [12] concerns HDQ-P1. The description is as above. In a few lines: as §1
Assay [13] concerns DU-4475. The assay is described as above. In a few lines:
as §1

Assay [14] deals with HCC1599. The assay is described as above. A digest of the protocol:
as §1

Assay [15] deals with CAL-148. The assay is described as above. In a few lines:
as §1

The next assay has as its system Hs578T. The assay is described as above. In a few lines:
as §1

The test system of assay [16] is CAL-120. The description is as above. In a few lines:
as §1

The test system of assay [17] is MDA-MB-231. The description is as above. In a few lines:
as §1

Assay [18] has as its system MCF-10A. The experiment in a line: normalised response (% of control), CellTox Green; higher = less cell death (100 = DMSO, 0 = benzethonium chloride kill control). In a few lines: as §1
For assay [19], the system named is MDA-MB-468. The assay is described as above. A digest of the protocol:
as §1

The subject of assay [20] is CAL-85-1. The description is as above. A digest of the protocol: as §1
In assay [21] the test system is HCC1143. The assay is described as above. A digest of the protocol:
as §1

The subject of assay [22] is BT-549. Described as above. A digest of the protocol:
as §1

In assay [23] the test system is CAL-51. The description is as above. In a few lines:
as §1

Assay [24] concerns BT-474. The assay is described as above. In a few lines: as §1
The subject of assay [25] is MFM-223. The description is as above. A digest of the protocol:
as §1

In assay [26] the test system is HCC1937. The assay is described as above. A digest of the protocol:
as §1

The test system of assay [27] is MDA-MB-453. The description is as above. A digest of the protocol: as §1
In assay [28] the test system is MDA-MB-436. The assay is described as above. In a few lines:
as §1

For assay [29], the system named is HDQ-P1. The assay is described as above. In a few lines:
as §1

Assay [30] has as its system DU-4475. Described as above. A digest of the protocol: as §1
Assay [31] relates to HCC1599. Described as above. In a few lines:
as §1

Assay [32] deals with CAL-148. The assay is described as above. A digest of the protocol:
as §1

Assay [33] deals with CAL-120. The assay is described as above. In a few lines:
as §1

Assay [34] deals with MDA-MB-231. The assay is described as above. In a few lines:
as §1

Data on six molecules can be found in the supplement of paper PMC4862054.

As to `CN1CCc2c(c3ccccc3n2Cc2ccc(C(=O)NO)cc2)C1` [Tubastatin A] (1 nM), the normalised response was determined as 99.8% in the assay on MCF-10A [1]; 99.5% in the assay on MDA-MB-468 [2]; 103% with CAL-85-1 [3]; 98% in the assay on HCC1143 [4]; 104% with BT-549 [5]; 88.4% with CAL-51 [6]. The normalised response in the assay on BT-474 [7] is 97.3%; with MFM-223 [8], 101%; in the assay on SK-BR-3 it was 99.3%; with HCC1937 [9], 97.6%; in the assay on MDA-MB-453 [10], 103%; in the assay with MDA-MB-436 [11], 87.7%. Also, the normalised response in the assay with HDQ-P1 [12] was determined as 96.4%; in the assay on DU-4475 [13], 102%; with HCC1599 [14], 101%; in the assay on CAL-148 [15] it was 94.9%; in the assay with Hs578T it was 97.6%; with CAL-120 [16], 92.7%. The same molecule registered a normalised response in the assay with MDA-MB-231 [17] of 96.8%.

`CN1CCc2c(c3ccccc3n2Cc2ccc(C(=O)NO)cc2)C1` [Tubastatin A] (10 nM): the normalised response with MCF-10A [1] is 101%; with MDA-MB-468 [2], 102%; with CAL-85-1 [3] it was 107%; in the assay on HCC1143 [4] it was 95.2%; in the assay with BT-549 [5], 96.3%; in the assay with CAL-51 [6] it was 67.6%. The normalised response in the assay with BT-474 [7] was 92.7%; in the assay with MFM-223 [8] it was 102%; in the assay on SK-BR-3, 93.8%; with HCC1937 [9], 99.6%; with MDA-MB-453 [10] it was 94.1%; with MDA-MB-436 [11] it was 95.2%. In addition, the normalised response with HDQ-P1 [12] came out at 99.4%; in the assay on DU-4475 [13], 100%; with HCC1599 [14] it was 92.8%; in the assay with CAL-148 [15], 107%; in the assay on Hs578T it was 102%; in the assay with CAL-120 [16], 96.1%. Further, the normalised response in the assay with MDA-MB-231 [17] was determined as 92.4%.

For `CCc1c(C(=O)C(N)=O)c2c(OCC(=O)O)cccc2n1Cc1ccccc1` [Varespladib] (1 nM), the normalised response worked out at 110% in the assay with MCF-10A [1]; 89.2% with MDA-MB-468 [2]; 97.9% in the assay on CAL-85-1 [3]; 99% with HCC1143 [4]; 98.7% in the assay on BT-549 [5]; 100% in the assay on CAL-51 [6]. The normalised response in the assay on BT-474 [7] is 97.6%; in the assay on MFM-223 [8], 97.7%; with SK-BR-3, 101%; in the assay on HCC1937 [9] it was 96.6%; in the assay on MDA-MB-453 [10] it was 106%; in the assay with MDA-MB-436 [11], 102%. The normalised response in the assay on HDQ-P1 [12] stood at 100%; with DU-4475 [13], 93.6%; in the assay with HCC1599 [14] it was 102%; in the assay on CAL-148 [15], 109%; with Hs578T, 103%; in the assay with CAL-120 [16], 98.1%. Also, the normalised response with MDA-MB-231 [17] is 111%.

Take `CCc1c(C(=O)C(N)=O)c2c(OCC(=O)O)cccc2n1Cc1ccccc1` [Varespladib] (10 nM): the normalised response with MCF-10A [1] came to 105%; in the assay with MDA-MB-468 [2] it was 98.9%; in the assay with CAL-85-1 [3], 97.3%; with HCC1143 [4], 102%; in the assay on BT-549 [5] it was 92.9%; in the assay on CAL-51 [6] it was 107%. Moreover, the normalised response amounted to 97.2% with BT-474 [7]; 102% with MFM-223 [8]; 99.1% in the assay with SK-BR-3; 97.7% in the assay on HCC1937 [9]; 95.4% in the assay on MDA-MB-453 [10]; 96% in the assay with MDA-MB-436 [11]. Also, the normalised response was found to be 97.1% with HDQ-P1 [12]; 102% in the assay on DU-4475 [13]; 95.9% in the assay with HCC1599 [14]; 104% in the assay with CAL-148 [15]; 104% in the assay with Hs578T; 96% with CAL-120 [16]. The molecule further gave a normalised response in the assay on MDA-MB-231 [17] of 99.7%.

With `CCc1c(C(=O)C(N)=O)c2c(OCC(=O)O)cccc2n1Cc1ccccc1` [Varespladib] (1000 nM), the normalised response in the assay with MCF-10A [1] worked out at 104%; with MDA-MB-468 [2], 100%; in the assay on CAL-85-1 [3], 97.6%; with HCC1143 [4], 106%; in the assay with BT-549 [5] it was 94.2%; with CAL-51 [6], 106%. In addition, the normalised response in the assay with BT-474 [7] worked out at 92.6%; in the assay on MFM-223 [8], 95.8%; in the assay with SK-BR-3, 100%; in the assay on HCC1937 [9], 100%; in the assay with MDA-MB-453 [10], 99.8%; with MDA-MB-436 [11], 94%. The normalised response with HDQ-P1 [12] amounted to 100%; in the assay on DU-4475 [13], 101%; in the assay on HCC1599 [14], 96.4%; in the assay with CAL-148 [15], 104%; in the assay on Hs578T, 102%; in the assay with CAL-120 [16], 98.2%. The normalised response was found to be 103% in the assay with MDA-MB-231 [17]; 97.7% with MCF-10A [18]; 105% in the assay with MDA-MB-468 [19]; 114% with CAL-85-1 [20]; 108% in the assay with HCC1143 [21]; 102% in the assay with BT-549 [22]. Also, the normalised response was 110% in the assay on CAL-51 [23]; 99.9% in the assay on BT-474 [24]; 97% in the assay on MFM-223 [25]; 105% with HCC1937 [26]; 109% in the assay with MDA-MB-453 [27]; 103% in the assay with MDA-MB-436 [28]. Moreover, the normalised response with HDQ-P1 [29] was 114%; with DU-4475 [30] it was 102%; in the assay with HCC1599 [31], 99.3%; in the assay with CAL-148 [32], 100%; with CAL-120 [33], 106%; in the assay on MDA-MB-231 [34], 103%.

`CC[C@@H]1C(=O)N(C)c2cnc(Nc3ccc(C(=O)N[C@H]4CC[C@H](N5CCN(CC6CC6)CC5)CC4)cc3OC)nc2N1C(C)C` [Volasertib] (1 nM): the normalised response with MCF-10A [1] came to 102%; in the assay with MDA-MB-468 [2], 90.1%; in the assay on CAL-85-1 [3], 102%; with HCC1143 [4], 99.9%; with BT-549 [5] it was 102%; with CAL-51 [6], 111%. Moreover, the normalised response in the assay with BT-474 [7] turned out to be 89.7%; with MFM-223 [8], 98.3%; in the assay on SK-BR-3 it was 98.5%; in the assay with HCC1937 [9], 99.2%; in the assay with MDA-MB-453 [10] it was 77.1%; in the assay on MDA-MB-436 [11] it was 100%. The normalised response in the assay on HDQ-P1 [12] was determined as 92.5%; with DU-4475 [13], 100%; in the assay with HCC1599 [14], 113%; with CAL-148 [15], 105%; in the assay with Hs578T it was 103%; in the assay on CAL-120 [16], 100%. The normalised response in the assay with MDA-MB-231 [17] amounted to 97.6%.
